What is called EC50 is the concentration at which the effect is half-maximal. By IC50 is commonly meant the concentration that gives 50% inhibition. The low end stands for greater potency, the high end for weaker potency.

Several values for one entry are separate records, joined by “and”; a condition that tells them apart may be missing. Equal entries are not always repeated. Activity calls are given as the source filed them.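 How the source made its calls: active means compounds giving half or more protection of infected cells from virus-caused growth loss, again on retest; inactive means the rest.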 *1 amine or outer side, *2 acyl side, *3 side chain or, on linkers, in order; H or OH if unused. Where a SMILES comes first, the peptide text is derived from it. Bridges are numbered along the chain shown (N, C = ends). [ ]: non-standard residue; d: D form. The star is where a group is joined. X12 = O=C(C1CCCNN1[*:1])[*:2]; For = O=C*

This assay deals with CEM cells HIV-1 protection, formazan growth assay. Nature of the assay: NCI AIDS Antiviral Assay. To be noted: for IC50: measured here: growth of uninfected CEM cells. The procedure, abridged: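 Soluble formazan readout of cell growth; CEM cells ± HIV-1; 5 drug concs. ≥50% protection → retest; ≥50% again = moderately active; reproducible 100% = confirmed active.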

In the case of `CC1(C)OCN(c2ccc(N3CCOCC3)cc2)Cn2c1nc1ccccc12`, the EC50 is over 200 µM and the 50% inhibitory concentration (IC50) is 64.6 µM.

For `CCCCCCCCCCCCCCCCOCC(Cl)CP(=O)(O)OP(=O)(O)OCC1OC(n2cnc3c(N)ncnc32)C(O)C1O` (configuration not stated), the EC50 is over 100 µM and the 50% inhibitory concentration (IC50) was over 100 µM.

With `CCC1C/C(=N\N=C2CC(C)(C)NC(C)(C)C2)CC(C)(C)N1` (configuration not stated), the EC50 was over 200 µM and the IC50 was over 200 µM.

Regarding `CCC1CN2CCc3c([nH]c4ccccc34)C2C[C@@H]1CC(=O)N(C)C` (some centres not stated), the EC50 was over 148 µM and the IC50 is over 148 µM.

Regarding `CCC(=O)N1C(=O)C(C)C23c4cccc([N+](=O)[O-])c4C(=O)N2CCCN13` (configuration not stated), the EC50 was over 692 µM and the IC50 was over 692 µM.

As for `C[C@H]1CC[C@@H]2[C@@H](C)C[C@H]3[C@@H]4C(C)(C)OC(=O)[C@]4(C)C(=O)[C@@]23C1=O`, the EC50 was over 200 µM and the IC50 worked out at 77.6 µM.

Take `CC1(C)SC(C)(C)N2C(=O)[C@H]3N(C(=O)[C@@H]21)C(C)(C)SC3(C)C`: the EC50 was over 75.9 µM and the IC50 is over 75.9 µM.

As to `COC1CCN(N(C)C)O1` (configuration not stated), the EC50 is over 200 µM and the IC50 was over 200 µM.

As to `CN(C)CCCNC(=O)c1cc(NC(=O)c2cc(NC(=O)[C@H]3C[C@@H]3C(=O)Nc3cc(C(=O)Nc4cc(C(=O)NCCCN(C)C)n(C)c4)n(C)c3)cn2C)cn1C`, the result was inactive.

In the case of `Nc1ccccc1CN1C(=O)c2ccccc2C1=O`, the EC50 is over 200 µM and the IC50 came to 3.55 µM.

As for `Cn1c(CCN=C(N)CSS(=O)(=O)O)nc2ccccc21`, the EC50 was over 200 µM and the IC50 is 174 µM.

In the case of `O=C(O)c1c(-c2cccc3ccccc23)sc(-c2cccc3ccccc23)c1C(=O)O`, the outcome was inactive.

In the case of `C=C=C(C(=O)OC)S(=O)c1ccc([N+](=O)[O-])cc1[N+](=O)[O-]` (configuration not stated), the result was inactive.

For the molecule `O=C(CC(=O)N1N=C(N(c2ccccc2)c2ccccc2)CC1c1ccccc1)Nc1ccc(Cl)cc1` (configuration not stated), the result was inactive.

`CC1=CCCC(C)C1(C)CC/C(C)=C/CC/C(=C/CS(=O)(=O)CCN=C(N)N)CO` (configuration not stated): the EC50 was over 81.3 µM and the IC50 was determined as 15.1 µM.

`CC(NC(=O)N(C)C)NC(=O)N(C)C`: the outcome was inactive.

In the case of `CC(C)N(C(=O)C12C3C4C5C3C1(C(=O)N(C(C)C)C(C)C)C5C42)C(C)C` (configuration not stated), the EC50 was over 100 µM and the half-maximal inhibitory concentration (IC50) was over 100 µM.

Turning to `COP(=O)(OC)OC1C(=O)NC(=O)NC1=O`, the EC50 is over 200 µM and the IC50 is over 200 µM.

Regarding `O=C1NC(=O)C(CCCCO)N1` (configuration not stated), the result was inactive.

`C/C=C(\NC(=O)C(CCCCN)NC(=O)C(C)NC(=O)C1CSC(C)C(NC(=O)C2CSCC(NC(=O)C(C)NC(=O)C(N)C(C)CC)C(=O)NC(CCCCN)C(=O)NC(Cc3ccccc3)C(=O)NC(CC(C)C)C(=O)N2)C(=O)N2CCCC2C(=O)NCC(=O)N1)C(=O)NCC(=O)NC1CSCC2NC(=O)C(Cc3ccc(O)cc3)NC(=O)C(CSC=CNC2=O)NC(=O)C(CC(N)=O)NC(=O)C(Cc2ccccc2)NC1=O` (configuration not stated): the outcome was inactive.

For the molecule `CC(=O)OCc1ccc2c(c1)C(O)NC(=O)O2` (configuration not stated), the EC50 was over 200 µM and the half-inhibitory concentration (IC50) was 105 µM.

Take `CC1CC(=O)c2c(cc3c(-c4c(O)cc(O)c5c(O)c6c(cc45)OC(C)CC6=O)c(O)cc(O)c3c2O)O1` (configuration not stated): the result was inactive.

Consider `CC(=O)c1cccc(NCn2nnc3ccccc32)c1`, for which the EC50 was over 200 µM and the concentration for half-maximal inhibition (IC50) was found to be 95.5 µM.

For `O=C(N/N=C\c1ccc([N+](=O)[O-])s1)c1ccncc1`, the EC50 was over 200 µM and the IC50 stood at 8.71 µM.

Regarding `N#CC1C(C#N)C2CC1C1N=NN(c3ccccc3)C21` (configuration not stated), the EC50 was over 200 µM and the IC50 is over 200 µM.

Regarding `c1cc2c(s1)CCC/C2=N\N=C1/CCCc2sccc21`, the outcome was inactive.

For `CCOC(=O)CSc1nc(-c2ccc(OC)cc2)c(C#N)c(=O)[nH]1`, the EC50 is over 200 µM and the IC50 was determined as 97.7 µM.

Consider `O=C(NCCCNCCCCNCCCNC(=O)c1cc(-c2ccccc2)nc2ccccc12)c1cc(-c2ccccc2)nc2ccccc12`, for which the EC50 is over 20 µM and the IC50 was determined as 3.8 µM.

For the molecule `CC#COP(=O)(OCC)OCC`, the EC50 was over 251 µM and the IC50 is over 251 µM.

For the molecule `C/C(=N/NC(=S)NCCc1ccccn1)c1cnccn1`, the EC50 was over 200 µM and the IC50 is 8.71 µM.

`COc1cc2c[n+](C)c3c4cc(OC)c(OC(C)C)cc4ccc3c2cc1OC`: the EC50 was over 295 µM and the IC50 turned out to be 13.5 µM.

On to `COc1ccc(NCc2cccc3c(=O)c4ccc(Cl)cc4oc23)cc1`, for which the EC50 was 3.47 µM and the IC50 amounted to 25.1 µM.

Regarding `C=c1c2ccccc2oc2nc3[nH]c(N)c(C#N)c(N)c3c(=N)c12`, the EC50 is over 200 µM and the IC50 stood at 7.24 µM.

With `Cc1ccsc1/C=N/Nc1ccccn1`, the EC50 is over 200 µM and the IC50 stood at 21.4 µM.

On to `CCOC(=O)C1C2CCC(C2=C(c2ccccc2)c2ccccc2)C1C(=O)O` (configuration not stated), for which the EC50 is over 234 µM and the IC50 was determined as 102 µM.

With `O=C1/C(=C(/Br)I)c2ccccc2-c2ccccc21`, the EC50 was over 200 µM and the IC50 came out at 8.32 µM.

As for `COC(=O)C1=C(/C=C/C(C)=O)NC(C)=C(C(=O)OC(C)C)C1c1ccccc1Cl` (configuration not stated), the EC50 is over 200 µM and the half-inhibitory concentration (IC50) turned out to be 0.575 µM.

Regarding `NCCCNCCSSCCCCS(=O)O`, the outcome was inactive.

On to `C/C(=N/NC(=O)C[N+](C)(C)C)C(CN(C)C)C(=O)Nc1ccccc1` (configuration not stated), for which the EC50 was over 13.5 µM and the IC50 is over 13.5 µM.

Regarding `CCOC(=O)C1C(NC(N)=O)N(Cc2ccccc2)C(=O)N1Cc1ccccc1` (configuration not stated), the EC50 was over 447 µM and the IC50 is over 447 µM.

For the molecule `O=C1Cc2c([nH]c3ccccc23)-c2cc(Br)ccc2N1`, the EC50 is over 41.7 µM and the IC50 was over 41.7 µM.

`Nc1c(CCc2ccccn2)ccc2ccccc12`: the EC50 is over 200 µM and the IC50 came to 166 µM.

As for `O=c1cc(O)c2ccc(O)cc2o1`, the EC50 is over 40.7 µM and the half-inhibitory concentration (IC50) was over 40.7 µM.

As for `CC(=O)Nc1ccc(S(=O)(=O)NN(C)S(=O)(=O)c2ccc(C)cc2)cc1`, the EC50 is over 18.2 µM and the IC50 is over 18.2 µM.

For `[O-]c1c[n+](C23CCC(c4ccccc42)c2ccccc23)no1`, the EC50 is over 200 µM and the IC50 was found to be 97.7 µM.

Take `COc1ccc2c3c1OC1C4(CCC5C(C2)N(CC2CC2)CCC351)OCCO4` (configuration not stated): the EC50 is over 129 µM and the IC50 was over 129 µM.

Consider `COC(=O)c1c(CC(=O)O)oc2c1CCCC2`, for which the outcome was inactive.

As for `C(=C\c1nc2ccccc2s1)/c1ccc2c(c1)OCO2`, the EC50 is over 6.76 µM and the IC50 was over 6.76 µM.

With `CC1=N/C(=C\c2ccc(N)cc2)C(=O)N1Nc1nnc(NN2C(=O)/C(=C/c3ccc(N)cc3)N=C2C)c2ccccc12`, the result was inactive.

Regarding `CO[C@@H]1C2OC(C)(C)OC2O[C@@H]1C1OC[C@H]2O[C@@H](n3ccc(=O)[nH]c3=O)C(O)[C@H]2N1O` (some centres not stated), the EC50 was over 200 µM and the IC50 is 148 µM.

As for `COc1ccccc1/C=C/C(=O)/C=C/c1ccccc1O`, the EC50 is over 79.4 µM and the IC50 stood at 1.15 µM.

With `CCOC(=O)C(C(=O)OCC)C(C(=O)OCC)(C(=O)OCC)C(C(=O)OCC)C(=O)OCC`, the result was inactive.

Turning to `CC1(C)N([O-])[N+](=O)C1(C)C`, the EC50 is over 200 µM and the half-maximal inhibitory concentration (IC50) is over 200 µM.

As for `COc1cc(-c2nn3c(C)c(-c4ccccc4)nc3s2)cc(OC)c1OC`, the EC50 was 178 µM and the IC50 was over 200 µM.

Regarding `COC(C(=O)C(O)C(C)O)C1Cc2cc3cc(OC4CC(OC(C)=O)C(OC5CC(O)C(OC)C(C)O5)C(C)O4)cc(O)c3c(O)c2C(=O)C1OC1CC(OC2CC(OC3CC(C)(O)C(OC(=O)C(C)C)C(C)O3)C(O)C(C)O2)C(O)C(C)O1` (configuration not stated), the EC50 was over 2.09 µM; the IC50 was 0.0107 µM and 0.00389 µM.

With `CN1CCC2CCCCN2CC1=O` (configuration not stated), the EC50 is over 1150 µM and the IC50 is over 1150 µM.

As to `COC(=O)c1cc(OC)c(OC)c(OC)c1-c1cc2c(cc1C=O)OCO2`, the EC50 is over 132 µM and the IC50 is 120 µM.

For `Cn1nc(-c2ccccc2)c(C(=O)/C=C/c2ccccc2)c(N2CCOCC2)c1=O`, the EC50 is over 79.4 µM and the IC50 is over 79.4 µM.

For `CC(NC1CC1)c1ccccc1` (configuration not stated), the result was inactive.

As for `CCc1c(C)c(C#N)c(=S)n(C2OC(COC(C)=O)C(OC(C)=O)C(OC(C)=O)C2OC(C)=O)c1-c1ccccc1` (configuration not stated), the EC50 was over 200 µM and the IC50 was found to be 102 µM.

As to `N#CC(=C=[N-])[n+]1ccc(Cl)cc1`, the result was inactive.

Take `CCC(C)C(NC=O)C(=O)NC1C(=O)NC(CC(C)C)C(=O)NC(C(C)C)C(=O)N2NCCCC2C(=O)NC(CC(C)C)C(=O)N2NCCCC2C(=O)OC1C` (configuration not stated) (For-ITLV[X12]L[X12]; ester 2-C; configuration not given here): the EC50 is over 45.7 µM and the IC50 came to 25.1 µM.

Consider `N#CC(C#N)=C/C=C/c1ccccc1[N+](=O)[O-]`, for which the EC50 is over 200 µM and the IC50 stood at 3.47 µM.

Consider `CC12CCC(=O)N1c1cc([N+](=O)[O-])ccc1N2` (configuration not stated), for which the outcome was inactive.

Consider `N#Cc1c2c(c(N3CCOCC3)n3c1nc1ccccc13)CCCC2`, for which the EC50 is over 200 µM and the IC50 worked out at 8.32 µM.

For the molecule `Cc1ccccc1C(C#N)/C(=N/NC(=O)c1cc2ccccc2cc1O)C(=O)Nc1cccc(Cl)c1` (configuration not stated), the EC50 is over 191 µM and the IC50 came out at 4.9 µM.

For the molecule `N#CCCN(CCN(C(=O)Nc1ccccc1)c1ccccc1)C(=O)Nc1ccccc1`, the EC50 was over 200 µM and the IC50 came out at 55 µM.

In the case of `CCCCCCCCCCCCC(=O)NCC(=O)NC(Cc1ccccc1)C(=O)Oc1ccc([N+](=O)[O-])cc1` (configuration not stated), the EC50 is over 200 µM and the IC50 came to 5.25 µM.

`CCC12C=CCN3CC[C@]4(C(=C(C(=O)OC)[C@@H]1Nc1ccn(C5OC(COC(C)=O)C(OC(C)=O)C5OC(C)=O)c(=O)n1)Nc1ccccc14)C32` (some centres not stated): the EC50 was over 26.9 µM and the IC50 came out at 3.63 µM.

Values taken from PubChem BioAssay AID179 (DTP/NCI, 2004).
